From article PMC5218480 (PLoS ONE, 2017)

Tested on: MV-4-11 cells
Assay: Gene expression microarray analysis (Affymetrix PrimeView) and GSEA
Format: cell-based, human
Parameters: RFU PODN (11730768_x_at) / Fold change /veh PODN (11730768_x_at) / RFU LINC00158 (11744669_a_at) / Fold change /veh LINC00158 (11744669_a_at) / RFU DUSP10 (11751237_a_at) / Fold change /veh DUSP10 (11751237_a_at) / RFU ID3 (11757404_x_at) / Fold change /veh ID3 (11757404_x_at) / RFU PLEKHG5 (11737974_s_at) / Fold change /veh PLEKHG5 (11737974_s_at) / RFU LRRC4B (11730491_at) / Fold change /veh LRRC4B (11730491_at) / RFU GIMAP4 (11747438_a_at) / Fold change /veh GIMAP4 (11747438_a_at) / RFU KRT8 (11758183_x_at) / Fold change /veh KRT8 (11758183_x_at) / RFU CNN1 (11734310_a_at) / Fold change /veh CNN1 (11734310_a_at) / RFU VPS37D (11726825_at) / Fold change /veh VPS37D (11726825_at) / RFU C10orf10 (11716522_x_at) / Fold change /veh C10orf10 (11716522_x_at) / RFU KIR2DL2 /// KIR2DL4 /// KIR2DL5A /// KIR2DL5B /// KIR2DS1 /// KIR2DS2 /// KIR2DS3 /// KIR2DS4 /// KIR3DL3 /// KIR3DL3 /// KIR3DS1 (11738374_at) / Fold change /veh KIR2DL2 /// KIR2DL4 /// KIR2DL5A /// KIR2DL5B /// KIR2DS1 /// KIR2DS2 /// KIR2DS3 /// KIR2DS4 /// KIR3DL3 /// KIR3DL3 /// KIR3DS1 (11738374_at) / RFU C1QL1 (11718748_at) / Fold change /veh C1QL1 (11718748_at) / RFU TMPRSS4 (11747572_a_at) / Fold change /veh TMPRSS4 (11747572_a_at) / RFU HAMP (11756126_x_at) / Fold change /veh HAMP (11756126_x_at) / RFU RNFT2 (11725882_a_at) / Fold change /veh RNFT2 (11725882_a_at) / RFU NR4A2 (11747474_a_at) / Fold change /veh NR4A2 (11747474_a_at) / RFU ABCC12 (11746883_a_at) / Fold change /veh ABCC12 (11746883_a_at) / RFU TMEM136 (11760407_x_at) / Fold change /veh TMEM136 (11760407_x_at) / RFU CLDN22 /// WWC2 (11732394_at) / Fold change /veh CLDN22 /// WWC2 (11732394_at) / RFU HLA-DPB1 (11760878_x_at) / Fold change /veh HLA-DPB1 (11760878_x_at) / RFU SPINT1 (11716480_a_at) / Fold change /veh SPINT1 (11716480_a_at) / RFU GAP43 (11754022_s_at) / Fold change /veh GAP43 (11754022_s_at) / RFU A4GNT (11735810_at) / Fold change /veh A4GNT (11735810_at) / RFU PRB3 (11715151_x_at) / Fold change /veh PRB3 (11715151_x_at) / RFU TUBB4B (11761932_at) / Fold change /veh TUBB4B (11761932_at) / RFU CAPN14 (11732068_a_at) / Fold change /veh CAPN14 (11732068_a_at) / RFU TMCC2 (11721928_a_at) / Fold change /veh TMCC2 (11721928_a_at) / RFU IRGQ (11745062_a_at) / Fold change /veh IRGQ (11745062_a_at) / RFU FAM174B (11720279_a_at) / Fold change /veh FAM174B (11720279_a_at) / RFU TMPRSS4 (11748680_a_at) / Fold change /veh TMPRSS4 (11748680_a_at) / RFU FAM212B (11763350_a_at) / Fold change /veh FAM212B (11763350_a_at) / RFU PLEKHG5 (11743358_a_at) / Fold change /veh PLEKHG5 (11743358_a_at) / RFU ZSCAN30 (11745921_a_at) / Fold change /veh ZSCAN30 (11745921_a_at) / RFU CMKLR1 (11741424_a_at) / Fold change /veh CMKLR1 (11741424_a_at) / RFU LOC101060620 /// MAPK8IP1 (11723275_at) / Fold change /veh LOC101060620 /// MAPK8IP1 (11723275_at) / RFU SPTSSB (11747773_x_at) / Fold change /veh SPTSSB (11747773_x_at) / RFU PRSS12 (11739890_at) / Fold change /veh PRSS12 (11739890_at) / RFU BIN1 (11741810_x_at) / Fold change /veh BIN1 (11741810_x_at) / RFU WNT11 (11732464_a_at) / Fold change /veh WNT11 (11732464_a_at) / RFU C10orf10 (11716521_a_at) / Fold change /veh C10orf10 (11716521_a_at) / RFU C5orf56 (11738089_at) / Fold change /veh C5orf56 (11738089_at) / RFU CYB561 (11721691_x_at) / Fold change /veh CYB561 (11721691_x_at) / RFU ANKRD19P (11752326_a_at) / Fold change /veh ANKRD19P (11752326_a_at) / RFU OR2T12 /// OR2T33 /// OR2T8 (11738714_s_at) / Fold change /veh OR2T12 /// OR2T33 /// OR2T8 (11738714_s_at) / RFU VCAN (11748164_a_at) / Fold change /veh VCAN (11748164_a_at) / RFU JSRP1 (11732532_at) / Fold change /veh JSRP1 (11732532_at) / RFU KRTAP10-11 (11738290_x_at) / Fold change /veh KRTAP10-11 (11738290_x_at) / RFU MYO3A (11730013_a_at) / Fold change /veh MYO3A (11730013_a_at) / RFU EBF3 (11725865_a_at) / Fold change /veh EBF3 (11725865_a_at) / RFU CAMK2N1 (11719241_x_at) / Fold change /veh CAMK2N1 (11719241_x_at) / RFU C5orf56 (11738088_a_at) / Fold change /veh C5orf56 (11738088_a_at) / RFU OLFML3 (11715873_a_at) / Fold change /veh OLFML3 (11715873_a_at) / RFU LOC100653217 /// NTM (11731650_a_at) / Fold change /veh LOC100653217 /// NTM (11731650_a_at) / RFU MAPK11 (11762145_a_at) / Fold change /veh MAPK11 (11762145_a_at) / RFU FIZ1 (11724087_x_at) / Fold change /veh FIZ1 (11724087_x_at) / RFU OASL (11726364_x_at) / Fold change /veh OASL (11726364_x_at) / RFU SOX15 (11748057_x_at) / Fold change /veh SOX15 (11748057_x_at) / RFU CD79A (11719716_a_at) / Fold change /veh CD79A (11719716_a_at) / RFU HIST1H1D (11736915_at) / Fold change /veh HIST1H1D (11736915_at) / RFU CASKIN2 (11723855_a_at) / Fold change /veh CASKIN2 (11723855_a_at) / RFU LOC730098 (11760151_x_at) / Fold change /veh LOC730098 (11760151_x_at) / RFU OR4N2 (11742367_at) / Fold change /veh OR4N2 (11742367_at) / RFU PRRT2 (11749266_a_at) / Fold change /veh PRRT2 (11749266_a_at) / RFU SNX32 (11753110_a_at) / Fold change /veh SNX32 (11753110_a_at) / RFU CDHR5 (11726645_a_at) / Fold change /veh CDHR5 (11726645_a_at) / RFU RCAN1 (11760418_a_at) / Fold change /veh RCAN1 (11760418_a_at) / RFU FAM167A (11723789_a_at) / Fold change /veh FAM167A (11723789_a_at) / RFU FAM26E (11764081_at) / Fold change /veh FAM26E (11764081_at) / RFU ISYNA1 (11749810_s_at) / Fold change /veh ISYNA1 (11749810_s_at) / RFU ACY1 (11761880_at) / Fold change /veh ACY1 (11761880_at) / RFU 11764098_at / Fold change /veh 11764098_at / RFU SAMD14 (11745864_x_at) / Fold change /veh SAMD14 (11745864_x_at) / RFU NPB (11741838_a_at) / Fold change /veh NPB (11741838_a_at) / RFU TMPRSS6 (11731388_a_at) / Fold change /veh TMPRSS6 (11731388_a_at) / RFU KRTAP10-2 (11738614_at) / Fold change /veh KRTAP10-2 (11738614_at) / RFU ARHGAP8 /// PRR5-ARHGAP8 (11727945_x_at) / Fold change /veh ARHGAP8 /// PRR5-ARHGAP8 (11727945_x_at) / RFU KRTAP5-7 /// NADSYN1 (11734609_at) / Fold change /veh KRTAP5-7 /// NADSYN1 (11734609_at) / RFU RASL12 (11751679_a_at) / Fold change /veh RASL12 (11751679_a_at) / RFU CDKN2B (11736163_a_at) / Fold change /veh CDKN2B (11736163_a_at) / RFU PRF1 (11729649_at) / Fold change /veh PRF1 (11729649_at) / RFU, ZNF638 /// ZNF638-IT1 / Fold change vs veh, ZNF638 /// ZNF638-IT1 / RFU, PANK3 / Fold change vs veh, PANK3 / RFU, SH3YL1 / Fold change vs veh, SH3YL1 / RFU, ZEB2 / Fold change vs veh, ZEB2 / RFU, NRIP1 / Fold change vs veh, NRIP1 / RFU, PTTG1IP / Fold change vs veh, PTTG1IP / RFU, CAPN2 / Fold change vs veh, CAPN2 / RFU, MED14 / Fold change vs veh, MED14 / RFU, SNORA58 / Fold change vs veh, SNORA58 / RFU, C1orf63 / Fold change vs veh, C1orf63 / RFU, LRRFIP1 / Fold change vs veh, LRRFIP1 / RFU, NDUFAF7 / Fold change vs veh, NDUFAF7 / RFU, SLC12A2 / Fold change vs veh, SLC12A2 / RFU, IBTK / Fold change vs veh, IBTK / RFU, ESF1 / Fold change vs veh, ESF1 / Fold change vs veh, TMEM50B / RFU, TAOK1 / Fold change vs veh, TAOK1 / RFU, ACBD3 / Fold change vs veh, ACBD3 / RFU, TMA16 / Fold change vs veh, TMA16 / RFU, RWDD3 / Fold change vs veh, RWDD3 / RFU, BCAT1 / Fold change vs veh, BCAT1 / RFU, EDEM3 / Fold change vs veh, EDEM3 / RFU, TMEM33 / Fold change vs veh, TMEM33 / RFU, WDR75 / Fold change vs veh, WDR75 / RFU, AHCTF1 / Fold change vs veh, AHCTF1 / RFU, TFRC / Fold change vs veh, TFRC / RFU, ZDHHC17 / Fold change vs veh, ZDHHC17 / RFU, NOM1 / Fold change vs veh, NOM1 / RFU, ARL8B / Fold change vs veh, ARL8B / RFU, ZBTB11 / Fold change vs veh, ZBTB11 / RFU, TAMM41 / Fold change vs veh, TAMM41 / RFU, KIAA1704 /// LOC100996395 / Fold change vs veh, KIAA1704 /// LOC100996395 / RFU, ING1 / Fold change vs veh, ING1 / RFU, TRMT61B / Fold change vs veh, TRMT61B / RFU, FUBP3 / Fold change vs veh, FUBP3 / RFU, TP53 / Fold change vs veh, TP53 / RFU, TNKS2 / Fold change vs veh, TNKS2 / RFU, ZFP14 / Fold change vs veh, ZFP14 / RFU, ACTR2 / Fold change vs veh, ACTR2 / RFU, PPP3R1 / Fold change vs veh, PPP3R1 / RFU, PIK3R1 / Fold change vs veh, PIK3R1 / RFU, HNRNPA1 / Fold change vs veh, HNRNPA1 / RFU, RNF170 / Fold change vs veh, RNF170 / RFU, ZNF28 / Fold change vs veh, ZNF28 / RFU, RNGTT / Fold change vs veh, RNGTT / RFU, OGT / Fold change vs veh, OGT / RFU, BRD1 / Fold change vs veh, BRD1 / RFU, MARS / Fold change vs veh, MARS / RFU, ZNF655 / Fold change vs veh, ZNF655 / RFU, FAHD1 / Fold change vs veh, FAHD1 / RFU, BDP1 / Fold change vs veh, BDP1 / RFU, LRRCC1 / Fold change vs veh, LRRCC1 / RFU, ARID1A / Fold change vs veh, ARID1A / RFU, ZNF146 / Fold change vs veh, ZNF146 / RFU, ZNF330 / Fold change vs veh, ZNF330 / RFU, GPN3 / Fold change vs veh, GPN3 / RFU, C9orf123 / Fold change vs veh, C9orf123 / RFU, N4BP2L2 / Fold change vs veh, N4BP2L2 / RFU, ARFIP1 / Fold change vs veh, ARFIP1 / RFU, FAM179B / Fold change vs veh, FAM179B / RFU, BCL10 / Fold change vs veh, BCL10 / RFU, UHRF1BP1L / Fold change vs veh, UHRF1BP1L / RFU, BET1 / Fold change vs veh, BET1 / RFU, CNOT2 / Fold change vs veh, CNOT2 / RFU, ZNF268 / Fold change vs veh, ZNF268 / Fold change vs veh, ZNF507 / RFU, DGCR2 / Fold change vs veh, DGCR2 / RFU, WDSUB1 / Fold change vs veh, WDSUB1 / Fold change vs veh, HSP90B1 /// MIR3652 / RFU, ADSS / Fold change vs veh, ADSS / RFU, GK / Fold change vs veh, GK / RFU, ZNF148 / Fold change vs veh, ZNF148 / RFU, TAF9 / Fold change vs veh, TAF9 / RFU, SLC1A5 / Fold change vs veh, SLC1A5 / RFU, SLMO2 / Fold change vs veh, SLMO2 / RFU, ABCC4 / Fold change vs veh, ABCC4 / RFU, LOC101060439 /// RAP1B / Fold change vs veh, LOC101060439 /// RAP1B / RFU, RFX7 / Fold change vs veh, RFX7 / RFU, GTPBP10 / Fold change vs veh, GTPBP10 / RFU, CNEP1R1 / Fold change vs veh, CNEP1R1 / RFU, BIVM-ERCC5 /// ERCC5 / Fold change vs veh, BIVM-ERCC5 /// ERCC5 / RFU, ILF3 / Fold change vs veh, ILF3 / RFU 11762660_at / Fold change /veh 11762660_at / RFU VCAN (11757783_s_at) / Fold change /veh VCAN (11757783_s_at) / RFU DDX43 (11728927_at) / Fold change /veh DDX43 (11728927_at) / RFU KRT8 (11758188_x_at) / Fold change /veh KRT8 (11758188_x_at) / RFU NKD1 (11759106_at) / Fold change /veh NKD1 (11759106_at) / RFU SRD5A1 (11742802_a_at) / Fold change /veh SRD5A1 (11742802_a_at) / RFU TPSAB1 /// TPSB2 (11721975_s_at) / Fold change /veh TPSAB1 /// TPSB2 (11721975_s_at) / RFU GSTM3 (11746129_a_at) / Fold change /veh GSTM3 (11746129_a_at) / RFU IL23R (11737362_x_at) / Fold change /veh IL23R (11737362_x_at) / RFU TMEM51 (11727254_a_at) / Fold change /veh TMEM51 (11727254_a_at) / RFU PIWIL2 (11732686_x_at) / Fold change /veh PIWIL2 (11732686_x_at) / RFU ORM1 (11744905_x_at) / Fold change /veh ORM1 (11744905_x_at) / RFU CCDC152 (11743942_at) / Fold change /veh CCDC152 (11743942_at) / RFU ECM1 (11717891_a_at) / Fold change /veh ECM1 (11717891_a_at) / RFU IL23R (11748794_a_at) / Fold change /veh IL23R (11748794_a_at) / RFU TNFAIP8L3 (11732012_x_at) / Fold change /veh TNFAIP8L3 (11732012_x_at) / RFU MBOAT4 (11741988_at) / Fold change /veh MBOAT4 (11741988_at) / RFU 11764193_at / Fold change /veh 11764193_at / RFU TMEM53 (11763286_at) / Fold change /veh TMEM53 (11763286_at) / RFU MAGEB2 (11727129_at) / Fold change /veh MAGEB2 (11727129_at) / RFU TMEM200A (11744735_a_at) / Fold change /veh TMEM200A (11744735_a_at) / RFU CCDC152 (11751479_a_at) / Fold change /veh CCDC152 (11751479_a_at) / RFU FAM211A (11726209_a_at) / Fold change /veh FAM211A (11726209_a_at) / RFU RGS16 (11746705_a_at) / Fold change /veh RGS16 (11746705_a_at) / RFU VCAN (11755009_s_at) / Fold change /veh VCAN (11755009_s_at) / RFU RHOB (11743442_s_at) / Fold change /veh RHOB (11743442_s_at) / RFU RGS16 (11720943_a_at) / Fold change /veh RGS16 (11720943_a_at) / RFU RGS16 (11720944_at) / Fold change /veh RGS16 (11720944_at) / RFU, VPS4B / Fold change vs veh, VPS4B / RFU, CREB1 / Fold change vs veh, CREB1 / RFU, DNAJC13 / Fold change vs veh, DNAJC13 / RFU, GNAQ / Fold change vs veh, GNAQ / RFU, CDK5R1 / Fold change vs veh, CDK5R1 / RFU, ZRANB3 / Fold change vs veh, ZRANB3 / RFU, CUL4A / Fold change vs veh, CUL4A / RFU, CCNY / Fold change vs veh, CCNY / RFU, UFL1 / Fold change vs veh, UFL1 / RFU, COG3 / Fold change vs veh, COG3 / RFU, DIAPH2 / Fold change vs veh, DIAPH2 / RFU, SKA2 / Fold change vs veh, SKA2 / RFU, AFF3 / Fold change vs veh, AFF3 / RFU, LMF1 / Fold change vs veh, LMF1 / RFU, IPO11 / Fold change vs veh, IPO11 / RFU, DFFB / Fold change vs veh, DFFB / RFU, FOXP1 / Fold change vs veh, FOXP1 / RFU, CARD8 / Fold change vs veh, CARD8 / RFU, STRN3 / Fold change vs veh, STRN3 / RFU, ADK / Fold change vs veh, ADK / RFU, RASSF2 / Fold change vs veh, RASSF2 / RFU, WIPF1 / Fold change vs veh, WIPF1 / RFU, LARP1B / Fold change vs veh, LARP1B / RFU, RASA1 / Fold change vs veh, RASA1 / RFU, RB1 / Fold change vs veh, RB1 / RFU, PPFIA1 / Fold change vs veh, PPFIA1 / RFU, MAT2A / Fold change vs veh, MAT2A / RFU, CCT5 / Fold change vs veh, CCT5 / RFU, WDR92 / Fold change vs veh, WDR92 / RFU, CUX1 / Fold change vs veh, CUX1 / RFU, TTC7A / Fold change vs veh, TTC7A / RFU, TMEM135 / Fold change vs veh, TMEM135 / RFU, DEPTOR / Fold change vs veh, DEPTOR / RFU, CPM / Fold change vs veh, CPM / RFU, DNAJB6 / Fold change vs veh, DNAJB6 / RFU, CACNA2D3 / Fold change vs veh, CACNA2D3 / RFU, DTX4 / Fold change vs veh, DTX4 / RFU, TFCP2 / Fold change vs veh, TFCP2 / RFU, GMCL1 /// GMCL1P1 / Fold change vs veh, GMCL1 /// GMCL1P1 / RFU, AEBP2 / Fold change vs veh, AEBP2 / RFU, SNHG1 /// SNORD22 /// SNORD25 /// SNORD26 /// SNORD27 /// SNORD28 /// SNORD29 /// SNORD31 / Fold change vs veh, SNHG1 /// SNORD22 /// SNORD25 /// SNORD26 /// SNORD27 /// SNORD28 /// SNORD29 /// SNORD31 / Fold change (Aza/veh), C12orf56 (ProbeSet 11735607_a_at) / Fold change (ACY-1035/veh), C12orf56 (ProbeSet 11735607_a_at) / Fold change (Aza/veh), FGFR1OP (ProbeSet 11751329_s_at) / Fold change (ACY-1035/veh), FGFR1OP (ProbeSet 11751329_s_at) / Fold change (Aza/veh), VPS36 (ProbeSet 11739960_a_at) / Fold change (ACY-1035/veh), VPS36 (ProbeSet 11739960_a_at) / RFU SYPL1 (11715823_x_at) / Fold change /veh SYPL1 (11715823_x_at) / RFU IGFBP7 (11715501_s_at) / Fold change /veh IGFBP7 (11715501_s_at) / RFU REEP3 (11722064_at) / Fold change /veh REEP3 (11722064_at) / RFU IGLL1 (11728026_x_at) / Fold change /veh IGLL1 (11728026_x_at): dose or concentration left out as unconfirmed
Conditions: ProbeSet 11727827_x_at; LIST B

Nc1ncn([C@@H]2O[C@H](CO)[C@@H](O)[C@H]2O)c(=O)n1 [azacitidine]
RFU, NDUFAF7: 58.08 RFU
